Reference: patent US20240209028A1, “CNP COMPOUNDS” (priority 2022, published 2024)
Like-named read-outs stand apart in the source and are kept apart here. Starred links: 1 amine or outer side, 2 acyl side, 3 side chain; linkers in the order of their positions; H or OH if unused. Positions of bridges follow the written chain, without caps; N, C: chain ends. Residues, ends and D or L forms follow the SMILES beside them. *: point of attachment. C18 diacid = O=C(O)CCCCCCCCCCCCCCCCC(=O)*; γGlu = O=C(O)[C@H](CCC(=O)[*:2])N[*:1]; X1 = O=C(CCCCCCCCCCCCCCCCc1nnn[nH]1)*; AEEA = NCCOCCOCC(=O)O

Columns and labels:
[1] = PK of CNP compounds after i.v. and s.c. administration to rats; settings: male, Sprague Dawley, in vivo, rat; for clearance: read-out: Cl (L/hr/kg), i.v. administration (converted)
In short: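 Plasma exposure was quantified by protein precipitation and turboflow LC-MS/MS in SRM mode. Rats received either 100 nmol/kg intravenously or 300 nmol/kg subcutaneously, with sublingual blood taken at baseline and at points up to 72 h. Per-animal NCA gave clearance as Dose/AUCinf, and results are averaged over 4-6 animals.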

[2] = Thioflavin T (ThT) assay: lagtime and peptide recovery; format: physicochemical; settings: assay terminated after 45 hours; for LagTime (h) at pH 4.0: ThT, 37° C., shaking; for LagTime (h) at pH 6.5: ThT assay, pH 6.5, 37° C.
In short: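 ThT (final about 1 μM) was added to peptide supernatants at pH 4.0 and 6.5 and incubated at 37 °C with orbital shaking for 45 h. Fluorescence (ex 444/em 485 nm) was read every 20 min, and lag-time was taken as the time to onset of signal rise. Recovery is the RP-UPLC (215 nm) total peak area after vs. before incubation.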

[3] = iv, i.v., about 100 nmol/kg, read-out: T½ (hr), i.v. administration (converted)

SMILES: CC[C@H](C)[C@@H]1NC(=O)[C@H](CCCNC(=N)N)NC(=O)[C@H](CC(=O)O)NC(=O)[C@H](CC(C)C)NC(=O)[C@@H]2CCCN2C(=O)[C@H](CC(C)C)NC(=O)CNC(=O)[C@H](Cc2ccccc2)NC(=O)[C@@H](NC(=O)CNC(=O)[C@H](CCC(N)=O)NC(=O)[C@H](CO)NC(=O)[C@H](CO)NC(=O)CNC(=O)[C@H](Cc2c[nH]cn2)NC(=O)[C@H](Cc2c[nH]cn2)NC(=O)[C@H](CCC(N)=O)NC(=O)[C@H](C)NC(=O)CNC(=O)[C@H](Cc2c[nH]cn2)NC(=O)[C@H](Cc2ccc(O)cc2)NC(=O)[C@H](CCCCN)NC(=O)[C@H](Cc2c[nH]cn2)NC(=O)[C@H](C)NC(=O)[C@H](CCC(N)=O)NC(=O)[C@@H]2CCCN2C(=O)[C@H](Cc2c[nH]cn2)NC(=O)[C@H](CCC(=O)O)NC(=O)[C@H](CCC(N)=O)NC(=O)COCCOCCNC(=O)COCCOCCNC(=O)CC[C@H](NC(=O)CCCCCCCCCCCCCCCCC(=O)O)C(=O)O)CSSC[C@@H](C(=O)O)NC(=O)CNC(=O)[C@H](CC(C)C)NC(=O)CNC(=O)[C@H](CO)NC(=O)[C@H](CC(C)C)NC(=O)[C@H](CO)NC(=O)CNC1=O [compound 1381] ({C18 diacid-γGlu-AEEA-AEEA}-QEHPQAHKYHGAQHHGSSQGCFGLPLDRIGSLSGLGC-OH; disulfide 21-37)
- clearance ([1]; iv, i.v., about 100 nmol/kg): 0.00382 L/h/kg
- half-life [1, 3]: 15.2 h
- LagTime (h) at pH 4.0 [2]: 45 h

SMILES: CC[C@H](C)[C@@H]1NC(=O)[C@H](CCCNC(=N)N)NC(=O)[C@H](CC(=O)O)NC(=O)[C@H](CC(C)C)NC(=O)[C@@H]2CCCN2C(=O)[C@H](CC(C)C)NC(=O)CNC(=O)[C@H](Cc2ccccc2)NC(=O)[C@@H](NC(=O)CNC(=O)[C@H](CO)NC(=O)[C@H](CO)NC(=O)[C@H](CC(C)C)NC(=O)CNC(=O)[C@H](CCCCN)NC(=O)[C@H](CCCCN)NC(=O)[C@H](CCC(N)=O)NC(=O)[C@H](C)NC(=O)CNC(=O)[C@H](CCCCN)NC(=O)[C@H](Cc2ccc(O)cc2)NC(=O)[C@H](CCCCN)NC(=O)[C@H](CCCNC(=N)N)NC(=O)[C@H](C)NC(=O)[C@H](CCC(N)=O)NC(=O)[C@@H]2CCCN2C(=O)[C@H](Cc2c[nH]cn2)NC(=O)[C@H](CCC(=O)O)NC(=O)[C@H](CCC(N)=O)NC(=O)CC[C@H](NC(=O)CC[C@H](NC(=O)CC[C@H](NC(=O)CC[C@H](NC(=O)CCCCCCCCCCCCCCCCC(=O)O)C(=O)O)C(=O)O)C(=O)O)C(=O)O)CSSC[C@@H](C(=O)O)NC(=O)CNC(=O)[C@H](CC(C)C)NC(=O)CNC(=O)[C@H](CO)NC(=O)[C@H](CC(C)C)NC(=O)[C@H](CO)NC(=O)CNC1=O [compound 1389] ({C18 diacid-γGlu-γGlu-γGlu-γGlu}-QEHPQARKYKGAQKKGLSSGCFGLPLDRIGSLSGLGC-OH; disulfide 21-37)
- clearance ([1]; iv, i.v., about 100 nmol/kg): 0.00415 L/h/kg
- half-life [1, 3]: 14.6 h
- LagTime (h) at pH 4.0 [2]: 45 h

SMILES: CC[C@H](C)[C@@H]1NC(=O)[C@H](CCCNC(=N)N)NC(=O)[C@H](CC(=O)O)NC(=O)[C@H](CC(C)C)NC(=O)[C@@H]2CCCN2C(=O)[C@H](CC(C)C)NC(=O)CNC(=O)[C@H](Cc2ccccc2)NC(=O)[C@@H](NC(=O)CNC(=O)[C@H](CO)NC(=O)[C@H](CO)NC(=O)[C@H](CC(C)C)NC(=O)CNC(=O)[C@H](CCCCN)NC(=O)[C@H](CCCCN)NC(=O)[C@H](CCC(N)=O)NC(=O)[C@H](C)NC(=O)CNC(=O)[C@H](CCC(=O)O)NC(=O)[C@H](Cc2ccc(O)cc2)NC(=O)COCCOCCNC(=O)COCCOCCNC(=O)COCCOCCNC(=O)COCCOCCNC(=O)CC[C@H](NC(=O)CCCCCCCCCCCCCCCCC(=O)O)C(=O)O)CSSC[C@@H](C(=O)O)NC(=O)CNC(=O)[C@H](CC(C)C)NC(=O)CNC(=O)[C@H](CO)NC(=O)[C@H](CC(C)C)NC(=O)[C@H](CO)NC(=O)CNC1=O [compound 1392] ({C18 diacid-γGlu-AEEA-AEEA-AEEA-AEEA}-YEGAQKKGLSSGCFGLPLDRIGSLSGLGC-OH; disulfide 13-29)
- clearance ([1]; iv, i.v., about 100 nmol/kg): 0.00799 L/h/kg
- half-life [1, 3]: 5.72 h
- LagTime (h) at pH 6.5 [2]: 45 h

SMILES: CC[C@H](C)[C@@H]1NC(=O)[C@H](CCCNC(=N)N)NC(=O)[C@H](CC(=O)O)NC(=O)[C@H](CC(C)C)NC(=O)[C@@H]2CCCN2C(=O)[C@H](CC(C)C)NC(=O)CNC(=O)[C@H](Cc2ccccc2)NC(=O)[C@@H](NC(=O)CNC(=O)[C@H](CCC(N)=O)NC(=O)[C@H](CO)NC(=O)[C@H](CC(C)C)NC(=O)CNC(=O)[C@H](CO)NC(=O)[C@H](CCCCN)NC(=O)[C@H](CCC(N)=O)NC(=O)[C@H](C)NC(=O)CNC(=O)[C@H](Cc2c[nH]cn2)NC(=O)[C@H](Cc2ccc(O)cc2)NC(=O)[C@H](CCCCN)NC(=O)[C@H](CCCNC(=N)N)NC(=O)[C@H](C)NC(=O)COCCOCCNC(=O)COCCOCCNC(=O)CC[C@H](NC(=O)CC[C@H](NC(=O)CCCCCCCCCCCCCCCCc2nnn[nH]2)C(=O)O)C(=O)O)CSSC[C@@H](C(=O)O)NC(=O)CNC(=O)[C@H](CC(C)C)NC(=O)CNC(=O)[C@H](CO)NC(=O)[C@H](CC(C)C)NC(=O)[C@H](CO)NC(=O)CNC1=O [compound 1426] ({X1-γGlu-γGlu-AEEA-AEEA}-ARKYHGAQKSGLSQGCFGLPLDRIGSLSGLGC-OH; disulfide 16-32)
- clearance ([1]; iv, i.v., about 100 nmol/kg): 0.00348 L/h/kg
- half-life [1, 3]: 9.96 h
- LagTime (h) at pH 4.0 [2]: 0.33 h

SMILES: CC[C@H](C)[C@@H]1NC(=O)[C@H](CCCNC(=N)N)NC(=O)[C@H](CC(=O)O)NC(=O)[C@H](CC(C)C)NC(=O)[C@@H]2CCCN2C(=O)[C@H](CC(C)C)NC(=O)CNC(=O)[C@H](Cc2ccccc2)NC(=O)[C@@H](NC(=O)CNC(=O)[C@H](CCC(N)=O)NC(=O)[C@H](CO)NC(=O)CNC(=O)CNC(=O)[C@H](CCCCN)NC(=O)[C@H](CCCCN)NC(=O)[C@H](CCC(N)=O)NC(=O)[C@H](C)NC(=O)CNC(=O)[C@H](Cc2c[nH]cn2)NC(=O)[C@H](Cc2ccc(O)cc2)NC(=O)COCCOCCNC(=O)COCCOCCNC(=O)COCCOCCNC(=O)COCCOCCNC(=O)CC[C@H](NC(=O)CC[C@H](NC(=O)CCCCCCCCCCCCCCCCC(=O)O)C(=O)O)C(=O)O)CSSC[C@@H](C(=O)O)NC(=O)CNC(=O)[C@H](CC(C)C)NC(=O)CNC(=O)[C@H](CO)NC(=O)[C@H](CC(C)C)NC(=O)[C@H](CO)NC(=O)CNC1=O [compound 1434] ({C18 diacid-γGlu-γGlu-AEEA-AEEA-AEEA-AEEA}-YHGAQKKGGSQGCFGLPLDRIGSLSGLGC-OH; disulfide 13-29)
- clearance ([1]; iv, i.v., about 100 nmol/kg): 0.00764 L/h/kg
- half-life [1, 3]: 8.34 h
- LagTime (h) at pH 6.5 [2]: 45 h

SMILES: CC[C@H](C)[C@@H]1NC(=O)[C@H](CCCNC(=N)N)NC(=O)[C@H](CC(=O)O)NC(=O)[C@H](CC(C)C)NC(=O)[C@@H]2CCCN2C(=O)[C@H](CC(C)C)NC(=O)CNC(=O)[C@H](Cc2ccccc2)NC(=O)[C@@H](NC(=O)CNC(=O)[C@H](CCC(N)=O)NC(=O)[C@H](CO)NC(=O)[C@H](CO)NC(=O)CNC(=O)[C@H](CCCCN)NC(=O)[C@H](CCCCN)NC(=O)[C@H](CCC(N)=O)NC(=O)[C@H](C)NC(=O)CNC(=O)[C@@H]2CCCN2C(=O)[C@H](C)NC(=O)[C@H](CCC(N)=O)NC(=O)CNC(=O)COCCOCCNC(=O)COCCOCCNC(=O)CC[C@H](NC(=O)CCCCCCCCCCCCCCCCC(=O)O)C(=O)O)CSSC[C@@H](C(=O)O)NC(=O)CNC(=O)[C@H](CC(C)C)NC(=O)CNC(=O)[C@H](CO)NC(=O)[C@H](CC(C)C)NC(=O)[C@H](CO)NC(=O)CNC1=O [compound 9384] ({C18 diacid-γGlu-AEEA-AEEA}-GQAPGAQKKGSSQGCFGLPLDRIGSLSGLGC-OH; disulfide 15-31; C-terminus assumed)
- clearance ([1]; iv, i.v., about 100 nmol/kg): 0.00493 L/h/kg
- half-life [1, 3]: 9.15 h
- bioavailability ([1]; sc, s.c. bioavailability, about 300 nmol/kg, read-out: F (%), s.c. administration): 49.7%
- half-life ([1]; sc, s.c., about 300 nmol/kg, read-out: T½ (hr), s.c. administration (converted)): 9.47 h
- LagTime (h) at pH 6.5 [2]: 45 h
